Patent US20210177803A1, “NEW PHARMACEUTICAL USE FOR THE TREATMENT OF HEART FAILURE” (Novartis AG, priority 2018, published 2021)

Experiments:
[1] = system: patients hospitalized for acute HFrEF; experiment: PIONEER-HF study: clinical outcomes; assay type: in vivo, human; settings: 8 weeks; LCZ696 n = 440, enalapril n = 441
Protocol: The study rational and design is described in by Velazquez E J, et al. .in Am.
(§1) The starting dose and all subsequent doses were selected to optimize the highest tolerated dose based on a systolic blood pressure (SBP) algorithm.
(§2) Inclusion Criteria: • Patients ≥18 y of age with the capacity to provide written informed consent. • Currently hospitalized for a primary diagnosis of HF, including symptoms and signs of fluid overload. • Eligible patients will be randomized no earlier than 24 hours and up to ten days after presentation while still hospitalized as long as meet the following definition of stable status: • SBP≥100 mm Hg for the preceding 6 hours prior to randomization; no symptomatic hypotension • No increase (intensification) in i.v. diuretic dose within last 6 hours prior to randomization • No i.v. inotropic drugs for 24 hours prior to randomization • No i.v. vasodilators including nitrates within last 6 hours prior to randomization • Left ventricular EF 40% within the past 6 m (including current hospitalization) using echocardiography, multi gated acquisition scan (MUGA), CT scanning, MRI or ventricular angiography, provided no subsequent study documented an EF of >40% • Elevated NT-proBNP≥1600 pg/mL OR BNP≥400 pg/mL during current hospitalization.

[2] = system: patients hospitalized for acute HFrEF
Protocol: as §1, §2

CCOC(=O)[C@H](CCc1ccccc1)N[C@@H](C)C(=O)N1CCC[C@H]1C(=O)O [enalapril, reference compound]
Additional HF drug [1]: 83 (18.8) number (%)
Composite (death, rehospitalization for HF, LVAD implantation, or listing for cardiac transplant) [1]: 74 (16.8) number (%)
Death [1]: 15 (3.4) number (%)
Expanded composite (composite plus unplanned outpatient visits requiring IV diuretics, or increase >50% in diuretic dose) [1]: 275 (62.4) number (%)
HF rehospitalization [1]: 61 (13.8) number (%)
Increase in diuretic dose >50% [1]: 239 (54.2) number (%)
LVAD implantation [1]: 1 (0.2) number (%)
Listing for cardiac transplant [1]: 0 (0.0) number (%)
Unplanned outpatient visits requiring intravenous diuretics [1]: 2 (0.5) number (%)
Hyperkalemia ([2]; 8 weeks): 9.3%
Symptomatic hypotension ([2]; 8 weeks): 9.1%
Worsening renal function ([2]; 8 weeks): 14.7%
Angioedema in patients who identified as black (in words) ([2]; black patients): angioedema were observed
Angioedema events (number in words) ([2]; blinded adjudication): six
Angioedema ([2]; blinded adjudication, 8 weeks): 1.4%
Patients in whom the maximum target dose had been achieved ([2]; by the week 8 study visit): 62%
Study drug prematurely discontinued prior to 8 weeks ([2]; excluding discontinuation due to death): 20.3%
